The source made the active and inactive calls. The rule behind the calls is not given here.
Experiments:
PC-3 [1] = test: Cytotoxicity against human PC-3 cells incubated for 72 hrs by MTT assay; format: functional, cell-based; details: PC-3, 72 h
[2] = Selectivity index, ratio of IC50 for human skin fibroblast to IC50 for human PC-3 cells; format: toxicity; details: human skin fibroblasts and PC-3 cells, read-out: Ratio IC50
Caco-2 = test: Cytotoxicity against human Caco-2 cells incubated for 72 hrs by MTT assay; format: functional, cell-based; details: Caco-2, 72 h
[3] = Selectivity index, ratio of IC50 for human skin fibroblast to IC50 for human Caco-2 cells
MCF7 = test: Cytotoxicity against human MCF7 cells incubated for 72 hrs by MTT assay; format: functional, cell-based; details: MCF7, 72 h
[4] = Cytotoxicity against human skin fibroblast cells incubated for 72 hrs by MTT assay; format: toxicity, cell-based
[5] = Drug accumulation in human PC-3 cells at 1 uM incubated for 2 hrs by LC-MS/MS analysis; format: ADME, cell-based; details: pc-3, 2 h
PC-3 [6] = test: Induction of mitochondrial transmembrane potential dissipation in human PC-3 cells at 30 uM incubated for 1 hr by TMRE staining based flow cytometry; format: functional, cell-based
PC-3 [7] = test: […] of ROS production in human PC-3 cells at 30 uM incubated for 1 hr by MitoSOX staining based flow cytometry; format: functional, cell-based
PC-3 [8] = test: Downregulation of Akt expression in human PC-3 cells at IC50 incubated for 3 days by Western blot analysis; format: functional, cell-based; details: time 3.0 day
PC-3 [9] = test: Upregulation of Cas3 expression in human PC-3 cells at IC50 incubated for 3 days by Western blot analysis; format: functional, cell-based; details: time 3.0 day
PC-3 [10] = test: Downregulation of ATG14 expression in human PC-3 cells at IC50 incubated for 3 days by Western blot analysis; format: functional, cell-based; details: time 3.0 day
PC-3 [11] = test: Downregulation of Beclin-1 expression in human PC-3 cells at IC50 incubated for 3 days by Western blot analysis; format: functional, cell-based; details: time 3.0 day
PC-3 [12] = test: Downregulation of LC-3 expression in human PC-3 cells at IC50 incubated for 3 days by Western blot analysis; format: functional, cell-based; details: time 3.0 day

SMILES	Ratio IC50 [3]	Drug uptake [5] [µM]	IC50 (PC-3 [1]) [nM]	selectivity ratio [2]	IC50 (Caco-2) [nM]	IC50 (MCF7) [nM]	IC50 at 72 h [4] [nM]	Activity (PC-3 [6])	Activity (PC-3 [7])	Activity (PC-3 [8])	Activity (PC-3 [9])	Activity (PC-3 [10])	Activity (PC-3 [11])	Activity (PC-3 [12])
C=C(C)[C@@H]1CC[C@]2(C(=O)OCCCCCC[P+](c3ccccc3)(c3ccccc3)c3ccccc3)CC[C@]3(C)[C@H](CC[C@@H]4[C@@]5(C)CC[C@H](O)C(C)(C)[C@@H]5CC[C@]43C)[C@@H]12.[Br-]	4.7	3.5	800	8.3	1400	800	8500							
C=C(C)[C@@H]1CC[C@]2(C(=O)O)CC[C@]3(C)[C@H](CC[C@@H]4[C@@]5(C)CC[C@H](O)C(C)(C)[C@@H]5CC[C@]43C)[C@@H]12 [BETULINIC ACID]		0.035												

Continued, in another order:

Ratio IC50 [3]	Drug uptake [5] [µM]	SMILES	IC50 (PC-3 [1]) [nM]	selectivity ratio [2]	IC50 (Caco-2) [nM]	IC50 (MCF7) [nM]	IC50 at 72 h [4] [nM]	Activity (PC-3 [6])	Activity (PC-3 [7])	Activity (PC-3 [8])	Activity (PC-3 [9])	Activity (PC-3 [10])	Activity (PC-3 [11])	Activity (PC-3 [12])
2.4	3.5	C=C(C)[C@@H]1CC[C@]2(C(=O)OCCCCCC[P+](c3ccccc3)(c3ccccc3)c3ccccc3)CC[C@]3(C)[C@H](CC[C@@H]4[C@@]5(C)CC[C@H](O[C@H]6O[C@H](CO)[C@@H](O)[C@H](O)[C@@H]6O)C(C)(C)[C@@H]5CC[C@]43C)[C@@H]12.[Br-]	2300	2.5	2400	2000	2900	Active	Active					
10.2	172.9	C=C(C)[C@@H]1CC[C@]2(C(=O)OCCCCCC[P+](c3ccccc3)(c3ccccc3)c3ccccc3)CC[C@]3(C)[C@H](CC[C@@H]4[C@@]5(C)CC[C@H](O[C@@H]6O[C@H](CO)[C@@H](O)[C@H](O)[C@H]6O)C(C)(C)[C@@H]5CC[C@]43C)[C@@H]12.[Br-]	400	32	1100	700	16500	Active	Active	Active	Active	Active	Active	Active
5.9	3.5	C=C(C)[C@@H]1CC[C@]2(C(=O)OCCCCCC[P+](c3ccccc3)(c3ccccc3)c3ccccc3)CC[C@]3(C)[C@H](CC[C@@H]4[C@@]5(C)CC[C@H](O[C@@H]6O[C@@H](C)[C@H](O)[C@@H](O)[C@H]6O)C(C)(C)[C@@H]5CC[C@]43C)[C@@H]12.[Br-]	1200	9.7	2000	1100	10800	Active	Active	Active	Active	Active	Active	Active

— ChEMBL document CHEMBL5360626, “Bifunctionalized Betulinic Acid Conjugates with C-3-Monodesmoside and C-28-Triphenylphosphonium Moieties with Increased Cancer Cell Targetability” (J Nat Prod, 2023)
